Paper PMC8876855, “AsKC11, a Kunitz Peptide from Anemonia sulcata, Is a Novel Activator of G Protein-Coupled Inward-Rectifier Potassium Channels” (Marine Drugs, 2022)
Bridges are numbered along the chain shown (N, C = ends). Where no end group is shown, it is not given here.

Assays:
[1] = cited from earlier work
Text: To better understand the potential of activating neuronal GIRK1/2 channels for therapeutic intervention, selective and potent activators have been developed for GIRK channels. […] Howeve ...

GIRK1/2 channels = settings: cited from earlier work
Text: (§1) To better understand the potential of activating neuronal GIRK1/2 channels for therapeutic intervention, selective and potent activators have been developed for GIRK channels. […] These activators are weak and nonspecific since they exert effects in the millimolar range and target several types of ion channels at the same range of concentrations. Thus, early investigation of the pathological and physiological relevance of GIRK channels was hampered partly by the lack of potent and selective probes. ...

GIRK2 channel = settings: ref [2],[16]; cited from earlier work
Text: These activators are weak and nonspecific since they exert effects in the millimolar range and target several types of ion channels at the same range of concentrations. Thus, early investigation of the pathological and physiological relevance of GIRK channels was hampered partly by the lack of potent and selective probes. ...

GIRK channels = settings: ref [3],[38],[46]; cited from earlier work
Text: as §1

mGIRK1/2 [2] = target: T1, mGIRK1/2 (Mus musculus, UniProt P48542+P63250); assay: Kinetics and affinity of AsKC11 on GIRK1/2 channels (wash-in/wash-out, bimolecular scheme); format: cell-based
T1 construct: expressed in transfected cells; host or cells: Xenopus laevis oocytes injected with cRNA
T1 sequence (P63250 1-501): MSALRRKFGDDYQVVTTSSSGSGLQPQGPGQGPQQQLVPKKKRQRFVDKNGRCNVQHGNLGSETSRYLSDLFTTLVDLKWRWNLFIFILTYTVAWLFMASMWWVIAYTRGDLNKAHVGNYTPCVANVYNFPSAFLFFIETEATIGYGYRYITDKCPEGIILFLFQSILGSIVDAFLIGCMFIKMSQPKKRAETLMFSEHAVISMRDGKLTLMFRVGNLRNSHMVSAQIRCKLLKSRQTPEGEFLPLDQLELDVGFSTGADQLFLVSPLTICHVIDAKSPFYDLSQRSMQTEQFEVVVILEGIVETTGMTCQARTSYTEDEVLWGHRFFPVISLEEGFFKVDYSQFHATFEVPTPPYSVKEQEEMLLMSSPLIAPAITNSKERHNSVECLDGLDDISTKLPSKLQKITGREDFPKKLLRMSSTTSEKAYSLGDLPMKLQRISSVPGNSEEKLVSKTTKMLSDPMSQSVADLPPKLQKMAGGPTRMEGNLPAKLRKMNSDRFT
T1 sequence (P48542 1-425): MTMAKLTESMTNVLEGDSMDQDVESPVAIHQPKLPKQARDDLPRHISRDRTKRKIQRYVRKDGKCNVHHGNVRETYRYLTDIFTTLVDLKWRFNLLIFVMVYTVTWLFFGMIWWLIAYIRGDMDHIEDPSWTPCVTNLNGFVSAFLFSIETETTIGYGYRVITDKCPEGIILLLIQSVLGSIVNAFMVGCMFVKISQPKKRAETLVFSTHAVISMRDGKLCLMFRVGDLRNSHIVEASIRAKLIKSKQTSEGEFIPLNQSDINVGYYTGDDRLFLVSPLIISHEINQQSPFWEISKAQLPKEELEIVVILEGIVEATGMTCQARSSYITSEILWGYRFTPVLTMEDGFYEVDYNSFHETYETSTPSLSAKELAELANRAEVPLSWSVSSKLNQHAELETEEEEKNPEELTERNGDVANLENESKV
Text: As shown in the abovementioned results, AsKC11 binding was reversible. We next explored whether the AsKC11-elicited activation of GIRK1/2 channels followed a kinetic behavior of a simple bimolecular reaction. The current activation upon AsKC11 application and recovery upon AsKC11 removal followed a single exponential time course compatible with a bimolecular reaction scheme (See Section 4).
For the expression of potassium channels (hKV1.1, hKV1.2, hKV1.3, rKV1.4, rKV1.6, and mGIRK1/2, mGIRK2 alone, or IRK1) in Xenopus oocytes, the linearized plasmids were transcribed using the T3, T7, or SP6 mMESSAGEmMACHINE transcription kit (Ambion, Austin, TX, USA). Following the cRNA injection into oocytes and 1–4 days of incubation at 16 °C, electrophysiological experiments were conducted using the two-electrode voltage-clamp (TEVC) GeneClamp 500B (Axon Instruments, San Jose, CA, USA). Electrodes were fabricated from borosilicate glass tubes (1.14 mm outside diameter, 0.7 mm inside diameter) by a programmable microelectrode puller, PUL-1 (World Precision Instruments, Sarasota, FL, USA). Electrodes were filled with 3 M KCl and had tip resistances from 0.8 to 1.5 MΩ. […]

mGIRK1/2 [3] = target: T1, mGIRK1/2; assay: TEVC, K+ current enhancement through GIRK1/2 expressed in Xenopus oocytes; format: cell-based; settings: 48 μM AsKC11; heterotetrameric GIRK1/2 in oocytes; mean ± SD, n = 4; data not shown
Text: To identify the novel activator of GIRK1/2 channels, we first tested the effects of venom fractions previously purified from the venom of Anemonia sulcata on whole-cell currents in oocytes expressing GIRK1/2 channels. […] The oocytes coinjected with GIRK1/2 cRNA were voltage-clamped at −90 mV. To increase the GIRK current at the negative potential, a high-potassium extracellular buffer (HK) was used, which allowed for more obvious currents and accurate measurement. Thus, after exchanging ND96 to HK, basal K^+ currents (IK,basal) were observed and were carried by GIRK1/2 channels (Figure 1a).
The potency of AsKC11 to enhance inward K^+ currents through GIRK1/2 channels was studied by applying increasing concentrations of AsKC11 (2.4, 12, 24, and 48 µM) to oocytes expressing GIRK1/2 channels. These oocytes were subjected to a 1-s voltage ramp protocol from −150 to +60 mV from a holding potential of −20 mV.
All procedures for the use and handling of adult female Xenopus laevis frogs (CRB Xénopes, Rennes, France) were approved by the Animal Ethics Committee of the KU Leuven (Project No. P186/2019) following regulations of the European Union (EU) concerning the welfare of laboratory animals, as declared in Directive 2010/63/EU. […] After recovery from anesthesia, frogs were returned to their tanks in the Aquatic Facility of KU Leuven and were monitored daily. […]

GIRK1/2 channel = target: T2, GIRK1/2 channel (Mus musculus, UniProt P63250); assay: two-electrode voltage clamp kinetics (koff/kon) in Xenopus oocytes
T2 chain 1: T1 sequence (P63250 1-501)
T2 chain 2: T1 sequence (P48542 1-425)

For `Cc1cc(NC(=O)Nc2ccc(F)c(F)c2)n(-c2ccccc2)n1` [ML297], the “effects in animal models” value ([1]; ref [2],[16]) is given as “antiepileptic and anxiolytic effects in animal models”, the “pharmacokinetic properties” value ([1]; ref [2]) is given as “suboptimal” and the “affinity of activity on GIRK1/2” value (GIRK1/2 channels; ref [2],[5],[16]) is given as “nanomolar range”. For the same molecule, the “requirement for GIRK1/2 activation” value (GIRK1/2 channels; ref [2]) was “required the presence of the membrane phospholipid phosphatidylinositol 4,5-bisphosphate instead of Gi/o” and the “effect on GIRK2 channel” value (GIRK2 channel) was “not affect the GIRK2 channel”.

For `CCO` [ethanol], the “potency for activating GIRK channels” value (GIRK channels) is given as “very low potency”.

In the case of `C[C@@H]1O[C@@H](O[C@H]2[C@H](Oc3cc(O)c4c(c3)O[C@H](c3ccc(O)cc3)CC4=O)O[C@H](CO)[C@@H](O)[C@@H]2O)[C@H](O)[C@H](O)[C@H]1O` [naringin], the “potency for activating GIRK channels” value (GIRK channels) is listed as “very low potency”.

In the case of “INKDCLLPKVVGFCRARFPRYYYNSSSRRCEKFIYGGCGGNANNFSSYYECHIKCFGPR (disulfide 5-55, 14-38, 30-51) [AsKC11]”, the koff (mGIRK1/2 [2]; 48 μM AsKC11, wash-out, read-out: first-order dissociation rate constant (koff = β)) is reported as 0.00633 s⁻¹, the kon (mGIRK1/2 [2]; 48 μM AsKC11, read-out: second-order association rate constant (α)) is reported as 78.2 M⁻¹ s⁻¹ and the “enhancement in inward K+ currents, GIRK1/2” value (mGIRK1/2 [3]) is reported as 74.1 ± 12.5%.

B1: AsKC11 (protein)
chain: INKDCLLPKVVGFCRARFPRYYYNSSSRRCEKFIYGGCGGNANNFSSYYECHIKCFGPR
Work on B1 yielded a Kd (GIRK1/2 channel) of 80.9 µM.
